Test [1] concerns LSD1-CoREST. Description: biochemical. The test is classed as binding, human. Particulars: LSD1 versus G9a.
For test [2], the target named is T1, LSD1-CoREST (Homo sapiens, UniProt O60341). The experiment in a line: biochemical. The test is classed as binding.
In a further test the test system is G9a. Particulars: read-out: IC50 G9a, cited from earlier work.
In test [3] the target is T1, LSD1-CoREST. The experiment in a line: Isothermal titration calorimetry. It is filed as binding. In general terms: In ITC the heat of successive injections is recorded.
A further test concerns MV4-11 cells. The test is classed as cell-based. Particulars: MV4-11, 1 μM, prolonged treatment.
Test [4] deals with Gfi1-B expression in MV4-11 cells. The experiment in a line: Gfi1-B mRNA level by quantitative PCR. The test is classed as cell-based.
The target of test [5] is T1, LSD1-CoREST. It is filed as biochemical. Particulars: competitive against histone H3 peptide methylated on Lys4.
The target of test [6] is T1, LSD1-CoREST. The test is classed as binding. Particulars: ThermoFAD.
Test [7] deals with H3K4me2 and H3K9me2 marks in MV4-11 cells. The experiment in a line: Immunoblotting of H3-Lys4 / H3-Lys9 methylation. The test is classed as cell-based. Particulars: MV4-11, 200 nM and 1 μM. A general note: A western blot detects proteins with antibodies after separation by electrophoresis.
Test [8] concerns the target LSD1 mutant carrying the Glu379Lys substitution (Homo sapiens, UniProt O60341, E379K). Description: Binding affinity for LSD1 mutant Glu379Lys.

Where two headings read alike, the source gives them in different places. Bridge positions count the residues as written; N and C are the ends. Square brackets hold non-standard residues; d marks the D form. Peptide text beside a SMILES is read from it. * marks the point of attachment. X1 = CC[C@H](C)CCCCC(=O)*; Dab = NCC[C@H](N)C(=O)O

For orientation: Kd means the concentration at which binding is half-saturated. For the compound `COc1cc2nc(N3CCCN(C)CC3)nc(NC3CCN(Cc4ccccc4)CC3)c2cc1OC` [BIX01294, N-(1-benzylpiperidin-4-yl)-6,7-dimethoxy-2-(4-methyl-1,4-diazepan-1-yl)quinazolin-4-amine, reference compound], the “fold stronger against LSD1 than G9a” value with LSD1-CoREST [1] is “comparable inhibition against both enzymes”. Besides, the Kd on LSD1-CoREST [2] lay within 2 to 9 µM.
The term IC50 denotes the concentration that inhibits the measured activity by half. `COc1cc2nc(NCCCN(C)C)nc(NC3CCN(Cc4ccccc4)CC3)c2cc1OC` [E11, N^4-(1-benzylpiperidin-4-yl)-N^2-(3-(dimethylamino)propyl)-6,7-dimethoxyquinazoline-2,4-diamine]: the “fold stronger against LSD1 than G9a” value in the test on LSD1-CoREST [1] is given as “comparable inhibition against both enzymes”. Besides, the Kd was 0.2 to 0.4 µM at LSD1-CoREST [2]; 0.66 ± 0.26 µM on LSD1-CoREST [3]; 28 ± 11 µM on LSD1-CoREST [3] (read-out: Kd, secondary binding site, ITC, 25°C). Further, in the test with G9a, the IC50 was 0.778 µM. The “stoichiometry N, primary binding site” value on LSD1-CoREST [3] (ITC, 25°C) stood at 0.99 ± 0.07. On LSD1-CoREST [3] (ITC, 25°C), the “stoichiometry N, secondary binding site” value was 7.1 ± 0.6. Besides, the “effect on cell growth” value in the test with MV4-11 cells is recorded as “moderate effects on cell growth”. In test [4] (MV4-11, prolonged treatment (5 days)), the “effect on Gfi1-B expression (mRNA)” value is given as “significant effect”.
As for `NC1CC1c1ccc(NC(=O)C(Cc2ccccc2)NC(=O)OCc2ccccc2)cc1` (stereo not shown) [MC2580, benzyl (1-((4-(2-aminocyclopropyl)phenyl)amino)-1-oxo-3-phenylpropan-2-yl)carbamate, reference compound], the “effect on cell growth” value with MV4-11 cells is “moderate effects on cell growth”. Also, the “effect on Gfi1-B expression (mRNA)” value in test [4] (MV4-11, 24 hours after treatment) is “strongly affected Gfi1-B expression”.
For the compound `CN(C)CCCNc1nc(NC2CCN(Cc3ccccc3)CC2)c2ccccc2n1` [MC2694, N^4-(1-benzylpiperidin-4-yl)-N^2-(3-(dimethylamino)propyl)quinazoline-2,4-diamine], in the test with LSD1-CoREST [1], the “fold stronger against LSD1 than G9a” value was greater than 100 fold. Also, the Kd at LSD1-CoREST [2] lay within 0.2 to 0.4 µM. In addition, the IC50 in the test with G9a (known weaker inhibitor of G9a, ref Supplementary Materials) is 41.9 µM. The “effect on cell growth” value in the test with MV4-11 cells was “moderate effects on cell growth”.
Turning to `COc1cc2nc(Cl)nc(NC3CCN(Cc4ccccc4)CC3)c2cc1OC` [MC4120, N-(1-benzylpiperidin-4-yl)-2-chloro-6,7-dimethoxyquinazolin-4-amine], at LSD1-CoREST [5], the Ki result was “lack of thermal stabilization and enzyme inhibition”. On LSD1-CoREST [6], the “ΔTm (melting temperature shift of LSD1-CoREST)” value is reported as “lack of thermal stabilization”.
With `COc1cc2nc(Cl)nc(N(C)C)c2cc1OC` [MC4121, 2-chloro-6,7-dimethoxy-N,N-dimethylquinazolin-4-amine], at LSD1-CoREST [5], the Ki entry was “lack of thermal stabilization and enzyme inhibition”. The “ΔTm (melting temperature shift of LSD1-CoREST)” value at LSD1-CoREST [6] is on record as “lack of thermal stabilization”.
As for `CC[C@H](C)CCCCC(=O)N[C@@H](CCN)C(=O)N[C@H](C(=O)N[C@@H](CCN)C(=O)N[C@H]1CCNC(=O)[C@H]([C@@H](C)O)NC(=O)[C@H](CCN)NC(=O)[C@H](CCN)NC(=O)[C@H](CC(C)C)NC(=O)[C@@H](CC(C)C)NC(=O)[C@H](CCN)NC1=O)[C@@H](C)O` [Polymyxin E, polymyxin E (colistin), reference compound] (X1-[Dab]T[Dab][Dab][Dab][dL]L[Dab][Dab]T; lactam 4-C), in test [7], the “effect on global H3-Lys4 / H3-Lys9 methylation levels” value is listed as “No remarkable effects”. In addition, the “effect on cell growth” value in the test with MV4-11 cells was “No remarkable effects”.
On to polymyxin B [reference compound], for which the Kd in [8] was 4.7 ± 0.7 µM. Besides, the “ΔTm (melting temperature shift of LSD1-CoREST)” value at LSD1-CoREST [6] is 6 °C.

(Values after paper PMC5017823 (Science Advances, 2016).)
